Measurements as given in patent EP4361137A1, “PRUNE1 INHIBITORS AND THERAPEUTIC USE THEREOF” (CEINGE Biotecnologie Avanzate Franco Salvatore s.c. a r.l., priority 2022, dated 2024).
Values joined by “and” are separate entries in the source; they are usually repeats but may differ in a detail not shown here. Equal values may be shown once. “Also recorded” adds a separate entry of the source. Each block holds one compound with its values, some of them ahead of it.

How the values were obtained:
D425-MED cells [1] = conditions: Ferrucci et al., 2018, read-out: IC50 reported for AA7.1 in the same D425-Med cells; cited from earlier work
[2] = 15, 30, and 60 mg/kg intraperitoneally daily for 1 week; Ferrucci et al.; cited from earlier work
MATH1-Prune1/ TP53-/- = experiment: Orthotopic implantation of MATH1-Prune1/TP53-/- cells in immunocompetent syngeneic mice, tumor growth; assay type: in vivo, FVB WT mice; conditions: AA7.1 at 30 mg/kg/day or 60 mg/kg/day intraperitoneally
Method: MATH1-Prune1/ TP53-/- were implanted into the right cerebellar hemisphere of female (n.10) immunocompetent syngeneic mice model (5 weeks old, strain: FVB WT) to establish intracerebellar MATH1-Prune1/ TP53-/- models. Mice were anaesthetised with Ketamine/ Xylazine (87.5 mg/kg, 12.5 mg/kg, respectively). The mice were then placed in a stereotactic frame by hooking their incisors onto the frame hold. A small skin incision (length, 1 mm) and a burr hole (diameter, 0.7 mm) were created using a microsurgical drill (Fine Science Tools, Foster City, CA, USA of MATH1-Prune1/ TP53-/- (1.5 ×10^5) were resuspended in 10 µL PBS and injected slowly through the burr hole into the right cerebellar hemisphere (stereotactic coordinates from Bregma: anteroposterior, 5.5 mm; right lateral, 2.1 mm; dorsoventral 5.0 mm), with a steady force over 30 s, using a 10-AL, 26-gauge Hamilton Gastight model 1701RN syringe needle (SigmaAldrich) that was inserted perpendicular to the cranial surface. The incision was sutured using Safil polyglycolic acid synthetic absorbable suture (6/0). The mice were kept on a warming blanket after the surgery, to help them to maintain their body temperature. Their mobility and respiratory patterns were observed continuously, and once the mice had recovered from the anaesthesia; they were place in a sterile housing cage. The mice were monitored daily for development of potential neurological deficits. 10 days after the implantation of the cells, the mice were imaged, and tumour growth was evaluated by bioluminescence acquisition using an imaging system (IVIS 3D Illumina; Xenogen/ Caliper). For the acquisitions, the mice were anaesthetised by inhalational of isoflurane, and the D-luciferin (122799; PerkinElmer) (15 mg/mL stock) was injected intraperitoneally (100 µL per 10 g body weight). At 5 min from the luciferin injection, the mice were imaged for 3 min. To quantify the bioluminescence, the integrated fluxes of photons (p/s) within each area of interest were determined using the Living Images Software Package 3.2 (Xenogen-Perkin Elmer). […] After 17 days from tumour implantation (i.e., after one weeks of LEO-AA7.5(S)T treatment), the mice were sacrificed, and the organs were collected for immunohistochemistry and immunofluorescence analyses.
Paraffin sections of the tumor specimens (thickness, 3 µm) were deparaffinised and rehydrated by immersing the slides in Xylene Substitute (A5597; Sigma), as three washes for 5 min each, then serially in 100%, 95%, 70%, 50%, and 30% ethanol (two washes for 10 min, for each), and deionised water (two washes, for 5 min each). The washes were then followed by PBS, PBS containing 0.02% Triton-X 100 (215680010; Acros Organics), and PBS (two washes for 5 min, for each). For antigen retrieval, the slides were immersed in boiling 10 mM sodium citrate buffer (pH 6.0) using a microwave oven, and then maintained at sub-boiling temperature for 10 min. The slides were left to cool at room temperature for 30 min. The sections were then washed by immersion in distilled water for 5 min. To block endogenous peroxidase activity, the tissue sections were placed in a solution with 3.0% hydrogen peroxide in methanol for 15 min. Then, to decrease the nonspecific background fluorescence, the tissues were digested by treating them with a solution containing 0.2% trypsin (T2600000; Sigma-Aldrich) and 0.001% CaCl2 for 10 min at 37 °C, in a humidified chamber. The slides were then washed in PBS, PBS containing 0.02% Triton-X 100 (215680010; Acros Organics), and PBS (two washes for 5 min, for each). The tissue sections were blocked with 6% bovine serum albumin (A9418; Sigma), 5% fetal bovine serum (ECS0180L; Euroclone), and 20 mM MgCl2 in PBS containing 0.02% Triton-X 100, for 1 h at room temperature, and incubated overnight with the primary antibodies at 4 °C in a humidified chamber. […]

[3] = system: MATH1-Prune1/TP53-/- cells; experiment: Real-time cell proliferation assay (cell index, xCELLigence); assay type: cell-based, murine; conditions: impedance every 2 min over 24 h
Method: Primary murine TNBC cells from tumors generated by MMTV-Prune1/Wnt1 mice [Ferrucci et al., 2021] and Primary murine Medulloblastoma Group 3 cells from tumors generated MATH-Prune1/TP53-/- mice were obtained (2 months from tumor onset).
(§1) Cellular proliferation rates were determined with the xCELLigence system (Roche). D425-MED, MATH-Prune1/TP53-/- and MMTV-Prune1/Wnt1 cells (8 × 10^3) were treated with increasing concentrations of LEO-AA7.5(S)T, harvested, and then added to a single well of an xCELLigence E-plate 16. The proliferation rates were determined at 2-min intervals by measuring the impedance changes across the electrodes at the bottoms of the wells. These cell index values were calculated by the xCELLigence RTCA software. with vehicle-treated cells were the negative control. Impedance was measured every 2 min over 24 hours. The IC50 values were calculated through nonlinear regression analysis performed with Graph Pad Prism 9 ([inhibitor] vs. response (three parameters). Data are means ± SD of three independent experiments.

Caspase 3 = Caspase 3 activity assay; assay type: cell-based, murine; conditions: MATH1-Prune1/TP53-/- cells; Vincristine 0.3 nM and 0.03 nM; LEO-AA7.5(S)T 10 µM; 24 hours
Method: MATH1-Prune1/TP53-/- cells (3×10^4) were plated in 96-well plate and treated with different doses of Vincristine (i.e., 0.3 nM or 0.03 nM) alone or combined to 10 µM LEO-AA7.5(S)T. Vehicle- (0.01% DMSO) treated cells were used as negative controls. Staurosporine-treated cells (1 µM) were used as positive controls of the assays. The assay was performed by using Caspase-3 Activity Assay Kit (#5723, Cell Signaling), by following the manufacture's instruction. Briefly, after 24 hours from the treatment started, cell medium was removed and 30 ul of cell lysis buffer (PI-7018, Cell Signaling) were added. The plate was then incubated for 5 minutes on ice. Later, 25 ul of cell lysate were mixed with 200 ul substrate solution B (#11734S, Cell Signaling) in a black 96 well plate. Fluorescence was detected by using a multimode plate reader (Enspire, 2300, PerkinElmer). The positive control AMC (25 µl, #11735S, Cell Signaling) mixed with 200 ul 1X assay buffer A (#11736S, Cell Signaling) was used as positive control of fluorescence.

D425-MED cells [4] = experiment: Real-time cell proliferation assay (cell index, xCELLigence); assay type: cell-based, human; conditions: combination with Vincristine
Method: J774A.1 murine macrophages (referred to as J774 cells; ATCC: #TIB-67), MMTV-Prune1-Wnt1 cells were grown in high-glucose Dulbecco's modified Eagle's medium (DMEM; Euroclone) supplemented with 20% (v/v) FBS, 2 mM L-glutamine, and 1% (v/v) antibiotics (Pen/Strep). D425-MED, D425-MED-Luc and […] cells were grown in high-glucose Dulbecco's modified Eagle's medium (DMEM; Euroclone) and Iscove's Modified Dulbecco's Medium (IMDM; Sigma) at 1:1 (v/v) dilution supplemented with 20% (v/v) FBS, 2 mM L-glutamine, 1% non-essential amino acid solution (M7145; Sigma-Aldrich/Merck), and 1% (v/v) antibiotics (Pen/Strep). The cells were grown at 37 °C in a humidified atmosphere of 95% air, 5% CO2 (v/v).
D425.MED and MMTV-Prune1/Wnt1 cells were plated and treated with increasing concentrations of LEO-AA7.5(S)T for 24 hours. Water-treated cells were used as negative control for the experiments.
as §1

SMILES: COc1ccc(CNc2ccnc(N3CC[C@@H](O)C3)n2)cc1 [AA7.1, (R)-1-(4-((4-methoxybenzyl)amino)pyrimidin-2-yl)pyrrolidin-3-ol, reference compound]
IC50 (D425-MED cells [1]): 130 ± 52.1 µM | acute toxicity (hematological parameters, hepatotoxicity, nephrotoxicity) [2]: no immediate acute toxicity | MB progression / tumour growth in cerebellum (bioluminescence) (MATH1-Prune1/ TP53-/-): inhibit MB progression; also recorded: impairment of tumour growth

Caspase 3 activation, single agent (Caspase 3): activation of Caspase 3
SMILES: CC[C@]1(O)C[C@H]2CN(CCc3c([nH]c4ccccc34)[C@@](C(=O)OC)(c3cc4c(cc3OC)N(C=O)[C@H]3[C@@](O)(C(=O)OC)[C@H](OC(C)=O)[C@]5(CC)C=CCN6CC[C@]43[C@@H]65)C2)C1 [Vincristine]
half maximal inhibitory concentration (IC50) for the inhibition of cell proliferation index [3]: 35 µM and 19,6 µM

SMILES: COc1ccc(CNc2ncnc(N3CCCC(CO)C3)n2)cc1 (stereo not drawn) [compound (I)]
dose of the chemotherapeutics diminished by synergistic action with Vincristine (D425-MED cells [4]): more than 100 fold
